The structures appear in SMILES notation. Some results are limits rather than exact numbers.

What is called IC50 is the point on the concentration scale where inhibition reaches its midpoint.

The target in one experiment is T1, GRK5 (Homo sapiens, UniProt P34947).
T1 construct: purchased Millipore (KinaseProfiler service)
Nature of the experiment: Millipore KinaseProfiler radiometric filtration binding assay. Conditions: group II; Millipore KinaseProfiler (Table 10). Format: biochemical. Here is the method: (§1) As alternative, IC50 values are determined by a radiometric based filtration binding assay, namely Millipore KinaseProfiler™. GRK5 is incubated with 8 mM MOPS pH7.0, 0.2 mM EDTA, 2 mg/mL casein, 10 mM MgAcetate and […] (specific activity approx. 500 cpm/pmol, concentration as required). The reaction is initiated by the addition of the MgATP mix. After incubation for 40 minutes at room temperature, the reaction is stopped by the addition of 3% phosphoric acid solution. 10 μL of the reaction is then spotted onto a P30 filtermat and washed three times for 5 minutes in 75 mM phosphoric acid and once in methanol prior to drying and scintillation counting.
as §1, with “IC50” for “As alternative, IC50”, “pH 7.0,” for “pH7.0,”

Another experiment deals with 3T3-L1 cells. Put plainly: Cell viability assay (CellTiter-Glo / automated cell number) in 3T3-L1. The following applies: Mus musculus, read-out: Inhibition of cell viability IC50. Format: cell-based. From the text: (§2) Luminescent cell viability assay. For the detection of cell viability, the CellTiter-Glo® Luminescent Cell Viability Assay was used. This test is based on a luciferase reaction to measure the amount of ATP in cells. This correlates directly with the number of cells and their viability because cells lose the ability to synthesize ATP directly after e.g. loss of membrane integrity or a cytotoxic event. The protocol was adapted to 24 well plates and to the different culture conditions resulting in a standardized protocol which is described below. Cell lysis, inhibition of endogenous ATPases and detection of ATP was performed by adding the CellTiter-Glo® Reagent to the culture wells. Per well, 100 μl reagent were mixed with the same volume of proper Medium. Lysing of the cells took place by 10 min incubation at RT and moderate shaking. Three times 50 μl cell lysate was transferred into a white 96 well plate to eliminate stray light, and the bioluminescence was measured.
(§3) In a 96 well dish 10000 cells per well (100 μl) were seed and treated for 72 h. At the end of the treatment, cells were fixed with 4% paraformaldehyde in PBS for 15 minutes, permeabilized with 0.1% triton-X 100 in PBS for 15 minutes and stained with Hoechst 33342 (20 μg/ml in PBS; dilute from 20 mg/ml stock) directly to cells in 100 μl medium in PBS for 30 minutes at 37° C. Stained cells were imaged with a Cellomics ArrayScan VT I automated microscope. Images were analyzed with vHCS Scan Target Activation software v5.1.2 to identify apoptotic cells. Six fields per well of a 96 well plate we re-imaged at 10× magnification. First, cells were identified by their nuclei staining in channel 1 of Cellomics and their amount. Staining intensity was plotted and compared between NT controls and compound treated cells. Finally, data was obtained using vHCS View software v 5.1.2 and the numbers of cells present in the 96 well were identified as “Valid Object Count” whereas the percentage of infection was determined as “% selected”. IC50 values have been calculated accordingly.

In another experiment the test system is beta TC6 cells. Nature of the experiment: Cell viability assay (CellTiter-Glo / automated cell number) in beta TC6. Format: cell-based. The following applies: Mus musculus, read-out: Inhibition of cell viability IC50.
Source text: as §2, §3
Background: In ATP-based viability assays light output follows the ATP content of the culture.

In a further experiment the test system is C2C12 cells. Put plainly: Cell viability assay (CellTiter-Glo / automated cell number) in C2C12. Format: cell-based. The following applies: Mus musculus, read-out: Inhibition of cell viability IC50.
Source text: as §2, §3

The next experiment addresses T2, full length GRK5 (Homo sapiens, UniProt P34947).
T2 construct: 6/2 fold concentrated full length GRK5 (Millipore, #14-714) in reaction buffer; purchased Millipore 14-714
Nature of the experiment: GRK5 kinase activity assay, ADP Glo Kinase Assay technology (Promega). Format: biochemical. Conditions: group II; ADP Glo Kinase Assay (Table 9-B). Put shortly: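 Casein (10 μM) phosphorylation with 100 μM ATP in 20 mM MES pH 6.0, 1 mM DTT, 10 mM MgCl2, 0.01% Tween20, 120 min at room temperature; ADP quantified by ADP-Glo luminescence.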
A general note: In ADP-Glo the light output rises with the ADP produced.

The test system of the next experiment is HepG2 cells. Nature of the experiment: Cell viability assay (CellTiter-Glo / automated cell number) in HepG2. Format: cell-based. The following applies: Homo sapiens, read-out: Inhibition of cell viability IC50.
Source text: as §2, §3

Experiment [1] relates to beta-TC6 insulinoma cells. Nature of the experiment: Insulin release by beta-TC6 cells, rat/mouse insulin ELISA, high glucose. Format: cell-based. Conditions: Mus musculus, Beta-TC6, 2 h, group II; 5 μM, 2 h, high glucose (4.5 g/L); % increase in regard to DMSO control (set at 0%). As to the method:
(§4) Release of insulin was detected using a rat/mouse insulin ELISA.
After incubation, the supernatant of the beta-TC6 insulinoma cells was diluted 1:20. The insulin release was measured with rat/mouse insulin ELISA (Merck Millipore Darmstadt, Cat. # EZRMI-13K) by following the manufacture protocol. The enzyme activity of the horseradish peroxidase of the immobilized biotinylated antibodies was monitored spectrophotometrically by the increased absorbency at 490 nm, and corrected by the absorbency at 610 nm.
as §4
The effect on the insulin release of each kinase depletion was monitored by using a rat/mouse insulin ELISA.
For the validation of the negative modulating kinases SCYL1, GRK5, and ADCK1, the target genes were depleted using four different siRNA-sequences each (FIG. 2A-D). The gene-depletion was measured via mRNA-levels after 72 hours while the insulin release was measured using a rat/mouse insulin ELISA after two hours incubation.
On the technique in general: ELISA stands for enzyme-linked immunosorbent assay.

T2 sequence (P34947 whole entry): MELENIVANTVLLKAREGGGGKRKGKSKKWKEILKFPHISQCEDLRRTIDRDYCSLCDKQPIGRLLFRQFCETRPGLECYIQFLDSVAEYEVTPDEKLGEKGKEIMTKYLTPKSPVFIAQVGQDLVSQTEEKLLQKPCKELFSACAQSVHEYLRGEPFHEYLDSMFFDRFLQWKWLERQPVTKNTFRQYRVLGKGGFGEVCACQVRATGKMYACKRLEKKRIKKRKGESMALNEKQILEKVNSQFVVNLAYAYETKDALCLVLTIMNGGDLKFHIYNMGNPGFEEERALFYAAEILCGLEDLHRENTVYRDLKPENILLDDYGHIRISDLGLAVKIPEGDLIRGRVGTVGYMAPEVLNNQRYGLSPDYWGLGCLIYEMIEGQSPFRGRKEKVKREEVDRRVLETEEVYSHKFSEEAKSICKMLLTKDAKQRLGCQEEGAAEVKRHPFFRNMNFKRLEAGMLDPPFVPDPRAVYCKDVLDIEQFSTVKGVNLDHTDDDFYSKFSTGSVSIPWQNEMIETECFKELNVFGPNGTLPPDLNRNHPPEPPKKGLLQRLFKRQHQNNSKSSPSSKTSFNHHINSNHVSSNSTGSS
T1 sequence (P34947 whole entry): as above

With `Cc1[nH]c(/C=C2\C(=O)Nc3ccc(C(=O)N[C@H](C)c4ccccc4)cc32)c(C)c1C(=O)N1CCC[C@H]1CN1CCCC1` [II.16, (3Z)-3-[(3,5-dimethyl-4-{[(2S)-2-(pyrrolidin-1-ylmethyl)pyrrolidin-1-yl]carbonyl}-1H-pyrrol-2-yl)methylene]-2-oxo-N-[(1R)-1-phenylethyl]indoline-5-carboxamide], at GRK5, the IC50 fell in the range of 0.1 to 1 µM.
For `Cc1[nH]c(/C=C2\C(=O)Nc3ccc(C(=O)N[C@@H]4CCc5ccccc54)cc32)c(C)c1C(=O)N1CCC[C@@H]1CN1CCCC1` [II.30, (3Z)-N-[(1R)-2,3-dihydro-1H-inden-1-yl]-3-[(3,5-dimethyl-4-{[(2R)-2-(pyrrolidin-1-ylmethyl)pyrrolidin-1-yl]carbonyl}-1H-pyrrol-2-yl)methylene]-2-oxoindoline-5-carboxamide], the IC50 at GRK5 is 2 to 10 µM; in the experiment on 3T3-L1 cells, 0.81 µM; with beta TC6 cells, 1.69 µM; with C2C12 cells, more than 10 µM; against full length GRK5, 2 to 10 µM; in the experiment on HepG2 cells it was 2.84 µM.
Consider `CC[C@@H](NC(=O)c1ccc2c(c1)/C(=C/c1[nH]c(C)c(C(=O)N3CCC[C@H]3CN3CCCC3)c1C)C(=O)N2)c1ccccc1` [II.46, (3Z)-3-[(3,5-dimethyl-4-{[(2S)-2-(pyrrolidin-1-ylmethyl)pyrrolidin-1-yl]carbonyl}-1H-pyrrol-2-yl)methylene]-2-oxo-N-[(1R)-1-phenylpropyl]indoline-5-carboxamide], for which the IC50 at GRK5 is less than 0.1 µM; with 3T3-L1 cells, 0.32 µM; in the experiment on beta TC6 cells, 0.22 µM; in the experiment with C2C12 cells, 8.86 µM; against full length GRK5, less than 0.1 µM; in the experiment with HepG2 cells, 0.78 µM.
For the compound `CC[C@H](NC(=O)c1ccc2c(c1)/C(=C/c1[nH]c(C)c(C(=O)N3CCC[C@H]3CN3CCCC3)c1C)C(=O)N2)c1ccccc1` [II.47, (3Z)-3-[(3,5-dimethyl-4-{[(2S)-2-(pyrrolidin-1-ylmethyl)pyrrolidin-1-yl]carbonyl}-1H-pyrrol-2-yl)methylene]-2-oxo-N-[(1S)-1-phenylpropyl]indoline-5-carboxamide], the IC50 on GRK5 is 2 to 10 µM; in the experiment with 3T3-L1 cells, 1.34 µM; in the experiment with beta TC6 cells, 2.21 µM; in the experiment with C2C12 cells it was more than 10 µM; against full length GRK5 it was 2 to 10 µM; with HepG2 cells, 3.25 µM.
Regarding `CC[C@@H](NC(=O)c1ccc2c(c1)/C(=C/c1[nH]c(C)c(C(=O)N3CCC[C@@H]3CN3CCCC3)c1C)C(=O)N2)c1ccccc1` [II.48, (3Z)-3-[(3,5-dimethyl-4-{[(2R)-2-(pyrrolidin-1-ylmethyl)pyrrolidin-1-yl]carbonyl}-1H-pyrrol-2-yl)methylene]-2-oxo-N-[(1R)-1-phenylpropyl]indoline-5-carboxamide], the IC50 is 0.1 to 1 µM at GRK5; 0.6 µM with 3T3-L1 cells; 1.08 µM in the experiment on beta TC6 cells; more than 10 µM in the experiment with C2C12 cells; 0.1 to 1 µM against full length GRK5; 1.43 µM in the experiment with HepG2 cells.
In turn, `Cc1cccc(C(C)NC(=O)c2ccc3c(c2)/C(=C/c2[nH]c(C)c(C(=O)N4CCN(C)CC4)c2C)C(=O)N3)c1` (stereo not shown) [II.51, (3Z)-3-({3,5-dimethyl-4-[(4-methylpiperazin-1-yl)carbonyl]-1H-pyrrol-2-yl}methylene)-N-[1-(3-methylphenyl)ethyl]-2-oxoindoline-5-carboxamide] had an activation at 5 µM in experiment [1] of 252%. Also, the IC50 in the experiment with 3T3-L1 cells was 1.36 µM; in the experiment with beta TC6 cells, 1.97 µM; in the experiment with C2C12 cells, 3.34 µM; against full length GRK5, 2 to 10 µM; in the experiment with HepG2 cells, 1.11 µM.
Consider `CC[C@@H](NC(=O)c1ccc2c(c1)/C(=C/c1[nH]c(C)c(C(=O)N3CCC(N4CCN(C)CC4)CC3)c1C)C(=O)N2)c1ccccc1` [II.53, (3Z)-3-[(3,5-dimethyl-4-{[4-(4-methylpiperazin-1-yl)piperidin-1-yl]carbonyl}-1H-pyrrol-2-yl)methylene]-2-oxo-N-[(1R)-1-phenylpropyl]indoline-5-carboxamide], for which the IC50 at GRK5 was 0.1 to 1 µM; in the experiment with 3T3-L1 cells it was 1.14 µM; in the experiment with beta TC6 cells, 1.55 µM; with C2C12 cells, more than 10 µM; against full length GRK5, 0.1 to 1 µM; with HepG2 cells it was 1.3 µM.
As to `Cc1[nH]c(/C=C2\C(=O)Nc3ccc(C(=O)N[C@H](C)c4cccc(Cl)c4)cc32)c(C)c1C(=O)N1CCCCC1` [II.55, (3Z)-N-[(1R)-1-(3-chlorophenyl)ethyl]-3-{[3,5-dimethyl-4-(piperidin-1-ylcarbonyl)-1H-pyrrol-2-yl]methylene}-2-oxoindoline-5-carboxamide], the IC50 is 0.1 to 1 µM on GRK5; 0.86 µM with 3T3-L1 cells; 1.1 µM in the experiment with beta TC6 cells; 1.41 µM in the experiment with C2C12 cells; 0.1 to 1 µM at full length GRK5; 0.79 µM in the experiment on HepG2 cells.
In experiment [1], `Cc1[nH]c(/C=C2\C(=O)Nc3ccc(C(=O)N[C@H](C)c4ccc(Cl)cc4)cc32)c(C)c1C(=O)N1CCCC1` [II.67, (3Z)-N-[(1R)-1-(4-chlorophenyl)ethyl]-3-{[3,5-dimethyl-4-(pyrrolidin-1-ylcarbonyl)-1H-pyrrol-2-yl]methylene}-2-oxoindoline-5-carboxamide] yielded an activation at 5 µM of 159%. Moreover, the IC50 is 1.52 µM in the experiment with 3T3-L1 cells; 1.94 µM in the experiment on beta TC6 cells; 3.94 µM in the experiment on C2C12 cells; 0.1 to 1 µM at full length GRK5; 1.47 µM in the experiment with HepG2 cells.
Compound `CC[C@@H](NC(=O)c1ccc2c(c1)/C(=C/c1[nH]c(C)c(CCC(=O)O)c1C)C(=O)N2)c1ccccc1` [II.130, (3Z)-3-{2,4-dimethyl-5-[2-oxo-5-(1R)-(1-phenyl-propylcarbamoyl)-1,2-dihydro-indol-3-ylidenemethyl]-1H-pyrrol-3-yl}-propionic acid] displayed an activation at 5 µM in experiment [1] of 103%. In addition, the IC50 in the experiment on 3T3-L1 cells was more than 10 µM; in the experiment on beta TC6 cells, 8.52 µM; in the experiment on C2C12 cells, more than 10 µM; against full length GRK5, 0.1 to 1 µM; in the experiment on HepG2 cells it was 1.58 µM.
`CC[C@@H](NC(=O)c1ccc2c(c1)/C(=C/c1[nH]c(C)c(CCC(=O)NCCN(CC)CC)c1C)C(=O)N2)c1ccccc1` [II.131, (3Z)-3-{4-[2-(2-diethylamino-ethylcarbamoyl)-ethyl]-3,5-dimethyl-1H-pyrrol-2-ylmethylene}-2-oxo-2,3-dihydro-1H-indole-5-carboxylic acid (1-phenyl-propyl)-amide] had an activation at 5 µM in experiment [1] of 134%. The IC50 in the experiment on 3T3-L1 cells was more than 10 µM; in the experiment on beta TC6 cells, 3.47 µM; in the experiment with C2C12 cells, more than 10 µM; against full length GRK5, 0.1 to 1 µM; with HepG2 cells, 1.49 µM.

These data come from patent publication US9458463B2, “Method for treatment of diabetes by a small molecule inhibitor for GRK5” (MAX-PLANCK-GESELLSCHAFT ZUR FÖRDERUNG DER WISSENSCHAFTEN …, priority 2010, dated 2016).
